Measurements published in patent US20190135793A1, “HETEROCYCLIC INHIBITORS OF KDM5 FOR THE TREATMENT OF DISEASE” (Board of Regents, The University of Texas System, priority 2017, published 2019).
Where two headings read alike, the source gives them in different places. Each block holds one compound with its values, some of them ahead of it.

Columns and labels:
KDM5B = biological target: T1, KDM5B (Homo sapiens, UniProt Q9UGL1); assay: biochemical
T1 construct: Full length of KDM5B and KDM4C protein were purchased from Active Motif; purchased Active Motif 31832
Protocol: (§1) KDM4C and KDM5B AlphaScreen Assay Material and Method
(§2) Compounds disclosed herein were (and can be) screened using the following assay.
Peptides used in all experiments were purchased from Anaspe. […] Final concentration of KDM5B and KDM4C used in the assay were 0.5 nM and 0.2 nM. Final concentration of peptides for 5B and 4C used in the assay were 3 nM.
(§3) 4 μL of KDM5B or KDM4C protein were added to 384-well OptiPlate by using multiflow, followed by 4 μl of either buffer or compound. Plates were sealed, spun down and incubated at RT for 15 min. 4 μl of biotinylated peptide was added to the plate, the plate was incubated at room temperature for 25 minutes (KDM5B) and 30 minutes (KDM4C) after sealed and spun down. Streptavidin donor beads and acceptor beads were diluted and mixed in the detection buffer with 7.5 mM EDTA, followed by adding 8 μl of acceptor and donor beads mix to the plate, before the plate was sealed and incubated at room temperature for 3 h or overnight at dark. The plate was read on Envision plate reader (PerkinElmer) using Alphascreen protocol. IC50s were calculated in GraphPad Prism 6.

KDM4C = biological target: T2, KDM4C (Homo sapiens, UniProt Q9H3R0); assay: KDM4C AlphaScreen assay; type: biochemical; details: AlphaScreen; full length KDM4C 0.2 nM; biotinylated H3K9Me3 peptide 3 nM; 30 minutes at room temperature
T2 construct: Full length of KDM5B and KDM4C protein were purchased from Active Motif; purchased Active Motif 31858
T2 sequence (Q9H3R0 1-1056): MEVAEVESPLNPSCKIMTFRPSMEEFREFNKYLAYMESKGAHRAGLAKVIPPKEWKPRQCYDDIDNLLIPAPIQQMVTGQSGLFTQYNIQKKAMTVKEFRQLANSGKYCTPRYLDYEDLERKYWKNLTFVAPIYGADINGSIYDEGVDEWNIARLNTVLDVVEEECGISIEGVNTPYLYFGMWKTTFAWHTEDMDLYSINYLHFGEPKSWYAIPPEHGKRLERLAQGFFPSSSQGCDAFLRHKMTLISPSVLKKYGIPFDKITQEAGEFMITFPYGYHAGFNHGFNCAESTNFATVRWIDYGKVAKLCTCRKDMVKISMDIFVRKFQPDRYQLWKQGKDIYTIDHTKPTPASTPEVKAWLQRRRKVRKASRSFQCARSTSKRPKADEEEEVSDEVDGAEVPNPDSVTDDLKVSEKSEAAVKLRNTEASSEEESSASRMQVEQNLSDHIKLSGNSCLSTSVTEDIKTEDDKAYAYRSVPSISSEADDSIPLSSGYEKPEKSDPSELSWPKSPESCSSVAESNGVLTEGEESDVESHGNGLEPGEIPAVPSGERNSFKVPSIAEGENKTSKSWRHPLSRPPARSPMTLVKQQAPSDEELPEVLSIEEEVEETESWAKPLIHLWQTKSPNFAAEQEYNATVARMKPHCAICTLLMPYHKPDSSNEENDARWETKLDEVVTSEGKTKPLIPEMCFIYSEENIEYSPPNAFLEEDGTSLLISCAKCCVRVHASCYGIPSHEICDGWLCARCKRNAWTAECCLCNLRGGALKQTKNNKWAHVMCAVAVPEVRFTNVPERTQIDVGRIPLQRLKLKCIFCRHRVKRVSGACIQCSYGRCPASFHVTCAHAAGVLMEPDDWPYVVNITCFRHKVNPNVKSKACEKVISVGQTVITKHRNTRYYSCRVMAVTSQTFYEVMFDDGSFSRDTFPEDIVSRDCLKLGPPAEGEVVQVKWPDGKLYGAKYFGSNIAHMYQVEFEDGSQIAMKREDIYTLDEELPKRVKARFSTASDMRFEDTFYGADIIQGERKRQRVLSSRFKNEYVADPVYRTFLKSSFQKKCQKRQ
Protocol: as §1, §2
Peptides used in all experiments were purchased from Anaspe. Full length of KDM5B and KDM4C protein were purchased from Active Motif: KDM5B (cat#31832) and KDM4C (Cat #31858). Final concentration of KDM5B and KDM4C used in the assay were 0.5 nM and 0.2 nM. Final concentration of peptides for 5B and 4C used in the assay were 3 nM.
as §3, with “AlphaScreen assays was conducted as following protocol: buffer used to make compound plate or DMSO is composed of 50 mM HEPES pH 7.4, 0.003% Tween-20; buffer used to dilute enzyme is composed of 50 mM HEPES pH 7.4, 0.003% Tween-20, 0.01% BSA, 500 μM TCEP; and buffer used to dilute the substrate is composed of 50 mM HEPES pH 7.4, 0.003% Tween-20, (NH4)2Fe(SO4)2 15 μM, alpha-ketoglutaric acid 4 μM and L-ascorbic acid 100 μM. 4 μL” for “4 μL”

[1] = AlphaScreen, full length KDM5B 0.5 nM, biotinylated H3K4Me3 peptide 3 nM, 25 minutes at room temperature, read-out: KDM5B (IC50)

T1 sequence (Q9UGL1 whole entry): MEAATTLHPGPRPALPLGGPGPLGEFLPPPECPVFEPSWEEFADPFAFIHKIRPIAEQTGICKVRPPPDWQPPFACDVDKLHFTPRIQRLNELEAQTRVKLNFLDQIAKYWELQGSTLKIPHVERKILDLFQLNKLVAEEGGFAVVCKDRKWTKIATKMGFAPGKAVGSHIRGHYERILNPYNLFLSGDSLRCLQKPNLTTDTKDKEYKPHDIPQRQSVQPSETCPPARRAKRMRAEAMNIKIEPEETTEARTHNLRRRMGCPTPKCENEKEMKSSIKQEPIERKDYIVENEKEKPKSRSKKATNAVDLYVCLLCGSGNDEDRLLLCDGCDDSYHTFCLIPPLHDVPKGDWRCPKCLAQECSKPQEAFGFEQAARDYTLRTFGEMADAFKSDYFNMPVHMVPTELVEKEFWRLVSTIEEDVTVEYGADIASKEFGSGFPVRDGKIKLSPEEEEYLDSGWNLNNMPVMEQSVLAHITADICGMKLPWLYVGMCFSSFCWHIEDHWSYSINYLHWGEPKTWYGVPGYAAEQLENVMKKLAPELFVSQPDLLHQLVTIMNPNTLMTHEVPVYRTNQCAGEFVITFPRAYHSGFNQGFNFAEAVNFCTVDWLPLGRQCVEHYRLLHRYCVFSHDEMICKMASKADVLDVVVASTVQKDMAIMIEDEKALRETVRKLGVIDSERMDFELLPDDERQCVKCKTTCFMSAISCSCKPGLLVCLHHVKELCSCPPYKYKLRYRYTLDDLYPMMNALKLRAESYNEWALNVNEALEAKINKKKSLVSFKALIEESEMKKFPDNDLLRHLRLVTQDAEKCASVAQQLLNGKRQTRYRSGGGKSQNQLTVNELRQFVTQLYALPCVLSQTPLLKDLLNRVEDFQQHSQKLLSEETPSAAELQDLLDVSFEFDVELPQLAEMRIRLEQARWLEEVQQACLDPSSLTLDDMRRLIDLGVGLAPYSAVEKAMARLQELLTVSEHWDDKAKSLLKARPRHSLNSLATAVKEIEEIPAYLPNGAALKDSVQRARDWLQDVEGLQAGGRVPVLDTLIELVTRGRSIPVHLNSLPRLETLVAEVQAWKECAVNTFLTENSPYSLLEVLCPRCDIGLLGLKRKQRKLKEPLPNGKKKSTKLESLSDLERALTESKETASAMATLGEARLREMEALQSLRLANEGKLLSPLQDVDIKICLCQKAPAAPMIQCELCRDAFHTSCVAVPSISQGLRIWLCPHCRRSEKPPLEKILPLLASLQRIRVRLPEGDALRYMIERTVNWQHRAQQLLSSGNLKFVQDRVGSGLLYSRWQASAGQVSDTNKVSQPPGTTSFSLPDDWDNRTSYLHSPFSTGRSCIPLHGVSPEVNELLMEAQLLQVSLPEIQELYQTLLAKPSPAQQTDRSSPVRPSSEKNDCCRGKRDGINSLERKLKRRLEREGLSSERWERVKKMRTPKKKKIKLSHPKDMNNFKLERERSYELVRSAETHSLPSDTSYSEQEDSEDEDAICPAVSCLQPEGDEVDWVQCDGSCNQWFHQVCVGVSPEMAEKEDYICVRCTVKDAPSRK

SMILES: Cc1nccn1-c1nc(O)c(C(C)C)c(-c2cnn(C(C)C)c2)n1 [Example 4, 5-isopropyl-6-(1-isopropyl-1H-pyrazol-4-yl)-2-(2-methyl-1H-imidazol-1-yl)pyrimidin-4-ol]
IC50 (KDM5B): 0.125 µM
IC50 (KDM4C): 4.48 µM

SMILES: CC(C)c1c(O)nc(-n2ccnc2)nc1-c1cnn(C2CC2)c1 [Example 47, 6-(1-Cyclopropyl-1H-pyrazol-4-yl)-2-(1H-imidazol-1-yl)-5-(propan-2-yl)pyrimidin-4-ol]
IC50 (KDM5B): 0.011 µM
IC50 (KDM4C): 0.771 µM

SMILES: CC(C)c1c(O)nc(-n2ccnc2)nc1Oc1cccnc1 [Example 28a, 2-(1H-Imidazol-1-yl)-5-isopropyl-6-(pyridin-3-yloxy)pyrimidin-4-ol]
IC50 (KDM5B): 0.032 µM
IC50 (KDM4C): 1.75 µM

SMILES: CC(C)c1c(O)nc(-n2ccnc2)nc1OCc1cccnc1 [Example 29, 2-(1H-Imidazol-1-yl)-5-isopropyl-6-(pyridin-3-ylmethoxy)pyrimidin-4-ol]
IC50 (KDM5B): 0.009 µM
IC50 (KDM4C): 0.502 µM

SMILES: CC(C)c1c(O)nc(-n2ccnc2)nc1-c1cnn(C2CCCC2)c1 [Example 67, 6-(1-Cyclopentyl-1H-pyrazol-4-yl)-2-(1H-imidazol-1-yl)-5-(propan-2-yl)pyrimidin-4-ol]
IC50 (KDM5B): 0.019 µM
IC50 (KDM4C): 1.34 µM

SMILES: CC(C)c1c(O)nc(-n2ccnc2)nc1OCCC1CCN(C(=O)CCO)CC1 [Example 14, 3-hydroxy-1-[4-(2-{[6-hydroxy-2-(1H-imidazol-1-yl)-5-(propan-2-yl)pyrimidin-4-yl]oxy}-ethyl)piperidin-1-yl]propan-1-one]
IC50 (KDM5B): 0.032 µM
IC50 (KDM4C): 2.01 µM

SMILES: CC(C)c1c(O)nc(-n2ccnc2)nc1-c1cccc(CN)c1 [Example 41, 6-[3-(Aminomethyl)phenyl]-2-(1H-imidazol-1-yl)-5-(propan-2-yl)pyrimidin-4-ol]
IC50 (KDM5B; [1]): 0.003 µM
IC50 (KDM4C): 0.281 µM

SMILES: CC(C)c1c(O)nc(-n2ccnc2)nc1-c1cnn(-c2ccccc2)c1 [Example 71, 2-(1H-Imidazol-1-yl)-6-(1-phenyl-1H-pyrazol-4-yl)-5-(propan-2-yl)pyrimidin-4-ol]
IC50 (KDM5B): 0.024 µM
IC50 (KDM4C): 1.56 µM

SMILES: Cc1n[nH]cc1-c1nc(-n2ccnc2)nc(O)c1C(C)C [Example 60, 2-(1H-Imidazol-1-yl)-6-(5-methyl-1H-pyrazol-4-yl)-5-(propan-2-yl)pyrimidin-4-ol]
IC50 (KDM5B; [1]): 0.017 µM
IC50 (KDM4C): 1.66 µM

SMILES: CC(C)c1c(O)nc(-n2ccnc2)nc1-c1ccc(CNS(C)(=O)=O)cc1 [Example 48, N-({4-[6-Hydroxy-2-(1H-imidazol-1-yl)-5-(propan-2-yl)pyrimidin-4-yl]phenyl}-methyl)methanesulfonamide]
IC50 (KDM5B; [1]): 0.013 µM
IC50 (KDM4C): 1.26 µM

SMILES: CC(C)c1c(O)nc(-n2ccnc2)nc1-c1cnn(CC(N)=O)c1 [Example 7, 2-(4-(6-Hydroxy-2-(1H-imidazol-1-yl)-5-isopropylpyrimidin-4-yl)-1H-pyrazol-1-yl)-acetamide]
IC50 (KDM5B): 0.011 µM
IC50 (KDM4C): 1.15 µM

SMILES: CC(C)c1c(O)nc(-n2ccnc2)nc1-c1cccc(CNS(C)(=O)=O)c1 [Example 76, N-({3-[6-Hydroxy-2-(1H-imidazol-1-yl)-5-(propan-2-yl)pyrimidin-4-yl]phenyl}-methyl)methanesulfonamide]
IC50 (KDM5B): 0.029 µM
IC50 (KDM4C): 1.86 µM

SMILES: CC(C)c1c(O)nc(-n2ccnc2)nc1-c1cnn(Cc2cccnc2)c1 [Example 45, 2-(1H-Imidazol-1-yl)-5-(propan-2-yl)-6-[1-(pyridin-3-ylmethyl)-1H-pyrazol-4-yl]-pyrimidin-4-ol]
IC50 (KDM5B; [1]): 0.01 µM
IC50 (KDM4C): 1.14 µM

SMILES: Oc1nc(-c2cncs2)ncc1C(F)(F)F [Example 33, 2-(1,3-Thiazol-5-yl)-5-(trifluoromethyl)pyrimidin-4-ol]
IC50 (KDM5B): 2.53 µM
IC50 (KDM4C): 3.64 µM

Other lines, results leading:

IC50 (KDM5B; [1]): 0.01 µM
IC50 (KDM4C): 0.455 µM
SMILES: CC(C)c1c(O)nc(-n2ccnc2)nc1-c1cnn(CC(=O)N2CCN(C)CC2)c1 [Example 99, 2-{4-[6-Hydroxy-2-(1H-imidazol-1-yl)-5-(propan-2-yl)pyrimidin-4-yl]-1H-pyrazol-1-yl}-1-(4-methyl-piperazin-1-yl)ethan-1-one]

IC50 (KDM5B; [1]): 0.805 µM
IC50 (KDM4C): 5.82 µM
SMILES: CC(C)c1cnc(-c2cncs2)nc1O [Example 157, 5-(Propan-2-yl)-2-(1,3-thiazol-5-yl)-pyrimidin-4-ol]

IC50 (KDM5B): 0.163 µM
IC50 (KDM4C): 21 µM
SMILES: CC(C)c1c(O)nc(-c2cncs2)nc1OCc1ccccn1 [Example 145, 5-(Propan-2-yl)-6-(pyridin-2-ylmethoxy)-2-(1,3-thiazol-5-yl)pyrimidin-4-ol]

IC50 (KDM5B): 0.03 µM
IC50 (KDM4C): 2.25 µM
SMILES: CC(C)c1c(O)nc(-n2ccnc2)nc1-c1cnn(CC(=O)NCCN(C)CC(F)(F)F)c1 [Example 116, 2-{4-[6-Hydroxy-2-(1H-imidazol-1-yl)-5-(propan-2-yl)pyrimidin-4-yl]-1H-pyrazol-1-yl}-N-{2-[methyl-(2,2,2-trifluoroethyl)amino]-ethyl}acetamide]

IC50 (KDM5B): 0.065 µM
IC50 (KDM4C): 5.56 µM
SMILES: CC(CN1CCOCC1)Oc1nc(-n2ccnc2)nc(O)c1C(C)C (stereo not drawn) [Example 138, 2-(1H-Imidazol-1-yl)-6-{[1-(morpholin-4-yl)propan-2-yl]oxy}-5-(propan-2-yl)-pyrimidin-4-ol]

IC50 (KDM5B): 0.073 µM
IC50 (KDM4C): 7.97 µM
SMILES: CC(C)c1c(O)nc(-n2ccnc2)nc1-c1cccc(C(=O)N2CCOCC2)c1 [Example 82, 2-(1H-Imidazol-1-yl)-6-[3-(morpholine-4-carbonyl)-phenyl]-5-(propan-2-yl)-pyrimidin-4-ol]

IC50 (KDM5B): 0.015 µM
IC50 (KDM4C): 0.84 µM
SMILES: CC(C)c1c(O)nc(-n2ccnc2)nc1OCC1COCCN1 (stereo not drawn) [Example 126, 2-(1H-Imidazol-1-yl)-6-(morpholin-3-ylmethoxy)-5-(propan-2-yl)pyrimidin-4-ol]

IC50 (KDM5B): 2.13 µM
IC50 (KDM4C): 13.9 µM
SMILES: CC(C)c1c(O)nc(-c2cncs2)nc1-c1cnn(C2CCNCC2)c1 [Example 154, 6-[1-(Piperidin-4-yl)-1H-pyrazol-4-yl]-5-(propan-2-yl)-2-(1,3-thiazol-5-yl)pyrimidin-4-ol]

IC50 (KDM5B): 0.018 µM
IC50 (KDM4C): 0.869 µM
SMILES: CC(C)c1c(O)nc(-n2ccnc2)nc1-c1cnn(CC(=O)NCc2ccn(C)n2)c1 [Example 106, 2-{4-[6-Hydroxy-2-(1H-imidazol-1-yl)-5-(propan-2-yl)pyrimidin-4-yl]-1H-pyrazol-1-yl}-N-[(1-methyl-1H-pyrazol-3-yl)methyl]-acetamide]

IC50 (KDM5B; [1]): 0.341 µM
IC50 (KDM4C): 50 µM
SMILES: CCCCCCOc1nc(-n2ccnc2)nc(O)c1C(C)C [Example 140, 6-(Hexyloxy)-2-(1H-imidazol-1-yl)-5-(propan-2-yl)pyrimidin-4-ol]
